We go through one compound from patent US11731973B2, “Substituted pyrazolo[3,4-d]pyrimidines as mTOR inhibitors” (GALDERMA RESEARCH & DEVELOPMENT, priority 2018, dated 2023).

The target in one assay is mTOR (Homo sapiens (Human), UniProt P42345). The assay can be described thus: Inhibitory activity on mTOR kinase (LANTHASCREEN TR-FRET). The class given is biochemical. The following applies: 1 hour reaction at room temperature. In general terms: Time-resolved FRET reads energy transfer from a long-lived donor to a nearby acceptor.
The target in a further assay is mTORC1 (Homo sapiens (Human), UniProt P42345). The assay can be described thus: mTORC1 inhibitory activity: phosphorylation of S6RP in A431 cells (HTRF). It counts as cell-based. The following applies: 3 hours at 37° C.
Another assay deals with mTORC2 (Homo sapiens (Human), UniProt P42345). The assay can be described thus: mTORC2 inhibitory activity: phosphorylation of AKT in A431 cells (HTRF). The class given is cell-based. The conditions noted are these: 3 hours at 37° C.
Assay [1] has as its system patch model of atopic dermatitis. The assay can be described thus: Patch model of atopic dermatitis (DERP epicutaneous sensitization) in mice. The class given is in vivo, Balb/c mice. The following applies: 0.07% in acetone vehicle, topical. As for the experimental part: The antagonist (mTOR inhibitor) according to example 31 tested was formulated at 0.07% in an acetone vehicle, applied to the skin of the back of the mouse (10 μl/ear on the two faces) and left for 2 hours before applying the DERP patches. Topical treatments with the antagonist (mTOR inhibitor) or a corticosteroid (betamethasone 17-valerate at 0.01% used as control) were performed only three times in the course of the third and final week of sensitization (on days 44, 47 and 50).
The transepidermal water loss TEWL is measured using a […]® on a control animal. The […]® probe measures the density gradient of water evaporation from the skin indirectly by means of two pairs of sensors (temperature and relative humidity) inside a hollow cylinder. A microprocessor analyzes the values and expresses the evaporation rate in g/h/m2.
The epidermal thickness is measured by histological morphometric analyses on sections 6 μm thick stained with HE using skin samples fixed beforehand with […].
The inflammation score is defined visually as a function of predefined scales of dryness, cutaneous eruption, baldness, excoriation and lichenification. The mean of the five scores attributed to an individual mouse on a given day gives the clinical score attributed on that specific day.
To evaluate the contribution of mTOR to the inflammatory response of atopic dermatitis, the inventors used an atopic dermatitis model described previously based on repeated epicutaneous sensitizations (Spergel et al. JCI 1998; Staumont-Sallé et al. JEM 2015), with Dermatophagoides pteronyssinus (DERP) as antigen. In this model, the skin lesions caused by the atopic dermatitis present inflammation with Th2 dominant characterized by dermal infiltration of CD4+T lymphocytes and of eosinophils accompanied by deposition of eosinophil products and an increase in the cutaneous expression of the Th2 cytokines.
Following the protocol of example 33, the inflammatory response of atopic dermatitis was provoked by epicutaneous sensitization with patches soaked with 100 μg of allergen in sterile saline solution (Dermatophagoides pteronyssinus or DERP) or with a vehicle applied to the abdominal skin 24 hours after shaving and left in place for three periods of one week (with renewal of the patch in the middle of the week), with a 2-week interval between the applications. The presence of the patches and of a transparent occlusive dressing on top prevented the mice from licking, biting and scratching; consequently, the inflammatory response in this model is not due to the itching cycle.
The antagonist according to example 31 (mTOR inhibitor) was formulated at 0.07% in an acetone-based vehicle, applied to the sensitized skin 2 hours before installation of the DERP patches. […]

Setting [2] is: days 44, 47 and 50, female Balb/c mice, DERP patches.

Method for mTORC1: (§1) The serial dilutions of the test molecules are added (0.1% DMSO final). After incubation for 3 hours at 37° C., the phosphorylation of the biomarkers S6RP (mTORC1) and AKT (mTORC2) is measured using the HTRF technology (Cisbio) according to the supplier's recommendations. […] The IC50 values are calculated using a 4-parameter logistic model with the aid of the XLFit software (IDBS).
Method for mTORC2: as §1

For orientation: Ki means the dissociation constant of the complex between target and ligand, obtained from inhibition or displacement. A high value points to a looser hold on the target. Broadly, the IC50 is the concentration that inhibits the measured activity by half. The low end stands for inhibition by little substance, the high end for a need for much substance. With `CC(C)n1nc(-c2ccc3oc(N)nc3c2)c2c(Cl)nc(N)nc21` [Example 31, 5-(6-Amino-4-chloro-1-isopropyl-1H-pyrazolo[3,4-d]pyrimidin-3-yl)benzo[d]oxazol-2-amine], the inhibition constant (Ki) on mTOR worked out at 0.01 µM. Besides, on mTORC1, the IC50 amounted to 0.0084 µM. This compound registered an IC50 on mTORC2 of 0.021 µM. Also, in assay [1] (setting [2]), the “change in epidermal thickness (epidermal acanthosis)” value is −39%, the “change in inflammatory scores” value is −40 and the “decrease of the increase in the rate of transepidermal water loss TEWL” value is listed as −68%. Also, in assay [1] (DERP patch model in mice), the “effect on the parameters studied (TEWL, epidermal thickness, inflammation score)” value is given as “reduces all the parameters studied”.
